The source of these data is ChEMBL document CHEMBL1201862, “PubChem BioAssay data set” (2004).

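Five concentrations, 48 hours, 96-well plates. At the GI50, growth is halved.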 Calls of active or inactive are those of the source. Rule as the data show it: active = GI50 up to about 1.1 µM and inactive = higher.

Experiment in all cases: DTP human tumour cell line panel, 48 h
For test [1], the system named is OVCAR-8.
The subject of test [2] is UO-31.
The test system of test [3] is OVCAR-3.
Test [4] relates to MDA-MB-435.
For test [5], the system named is OVCAR-5.
Test [6] relates to RPMI-8226.
Test [7] deals with SK-MEL-5.
Test [8] deals with HCC 2998.
Test [9] deals with SW-620.
Test [10] concerns HCT-15.
The subject of test [11] is NCI-H522.
Test [12] concerns SF-268.
Test [13] has as its system A549.
The subject of test [14] is IGROV-1.
In test [15] the test system is ACHN.
Test [16] concerns U-251.
For test [17], the system named is SK-MEL-28.
For test [18], the system named is RXF 393.
Test [19] deals with EKVX.
Test [20] has as its system MCF7.

As for `Clc1ccc2c(SCC3CO3)c3ccccc3nc2c1` (stereo not given), the GI50 in test [1] is 2.19 µM (inactive); in [2], 1.76 µM (inactive); in test [3], 1.73 µM (inactive); in [4] it was 3.15 µM (inactive); in test [5] it was 4.36 µM (inactive); in test [6] it was 2.42 µM (inactive). The GI50 in test [7] is 4.84 µM (inactive); in test [8] it was 4.81 µM (inactive); in [9] it was 1.92 µM (inactive); in test [10] it was 1.68 µM; in test [11] it was 2.08 µM (inactive); in test [12], 3.18 µM (inactive). The GI50 was 7.31 µM (inactive) in [13]; 1.33 µM (inactive) in test [14]; 2.06 µM (inactive) in test [15]; 1.84 µM (inactive) in test [16]; 2.88 µM (inactive) in test [17]; 2.66 µM (inactive) in test [18]. For the same compound, the GI50 in test [19] is 4.9 µM (inactive); in test [20], 1.47 µM (inactive).

For `CC(CC(C#N)(c1ccccc1)c1ccccc1)N1CCCCC1` (stereo not given), the GI50 in test [1] is 42.1 µM (inactive); in test [2] it was 26.2 µM (inactive); in test [3] it was 17.6 µM (inactive); in test [4] it was 19.1 µM (inactive); in test [5], 33.1 µM (inactive); in test [6], 19.2 µM (inactive). Moreover, the GI50 was 18 µM (inactive) in [7]; 15.4 µM (inactive) in [8]; 19.2 µM (inactive) in test [9]; 22.9 µM in test [10]; 18.6 µM (inactive) in test [11]; 48.9 µM (inactive) in [12]. Also, the GI50 was 44 µM (inactive) in test [13]; 43.2 µM (inactive) in [14]; 43.7 µM (inactive) in test [15]; 29.6 µM (inactive) in test [16]; 23.1 µM (inactive) in test [17]; 28.7 µM (inactive) in test [18]. Further, the GI50 is 23.8 µM (inactive) in [19] and 26.5 µM (inactive) in test [20].

On to `Cc1cc2c(cc1Cl)SC(NNc1ccc([N+](=O)[O-])cc1)=NS2(=O)=O`, for which the GI50 in test [1], in [2], in test [3], in [4], in test [5] and in test [6] was > 10 µM (inactive) throughout. In addition, the GI50 in test [7] is > 10 µM (inactive); in [8], > 10 µM (inactive); in test [9], > 10 µM (inactive); in [10], over 10 µM; in test [11], > 10 µM (inactive); in test [12], > 10 µM (inactive). Also, the GI50 in [13], in test [14], in test [15], in [16], in [17] and in test [18] was > 10 µM (inactive) each time. The GI50 in test [19] and in [20] was > 10 µM (inactive) in each case.

Take `Cc1ccc(/C=N/Nc2cc(C)c3cccc(C)c3n2)s1`: the GI50 in test [1] was 10.4 µM (inactive); in test [2], 5.79 µM (inactive); in [3], 8.02 µM (inactive); in [4], 7.14 µM (inactive); in test [5] it was 9.91 µM (inactive); in test [6] it was 6.67 µM (inactive). Besides, the GI50 in [7] is 9.86 µM (inactive); in [8] it was 6.38 µM (inactive); in test [9], 8.15 µM (inactive); in [10], 3.73 µM; in test [11] it was 2.81 µM (inactive); in [12], 6.73 µM (inactive). Moreover, the GI50 in [13] was 6.31 µM (inactive); in [14], 2.61 µM (inactive); in [15], 16.5 µM (inactive); in test [16], 10.6 µM (inactive); in test [17], 22.3 µM (inactive); in [18], 9.86 µM (inactive). Moreover, the GI50 was 13.5 µM (inactive) in test [19] and 4.11 µM (inactive) in test [20].

For `O=C1c2cc3c(cc2CC12Cc1cc4c(cc1C2=O)CCC4)CCCC3` (stereo not given), the GI50 in test [1], in [2], in test [3], in [4], in test [5] and in test [6] was > 100 µM (inactive) in each case. Further, the GI50 in [7] was > 100 µM (inactive); in [8] it was > 100 µM (inactive); in [9] it was > 100 µM (inactive); in [10] it was over 100 µM; in [11], > 100 µM (inactive); in test [12] it was > 100 µM (inactive). Besides, the GI50 in test [13] was > 100 µM (inactive); in [14] it was > 100 µM (inactive); in test [15], > 100 µM (inactive); in test [16] it was 89.1 µM (inactive); in test [17] it was > 100 µM (inactive); in [18], > 100 µM (inactive). Further, the GI50 in [19] was 95.1 µM (inactive); in [20], > 100 µM (inactive).

Regarding `O=C1C=C/C(=N/c2ccccc2)c2ccccc21`, the GI50 in test [1] is 11.3 µM (inactive); in [2], 10.3 µM (inactive); in test [3], 1.89 µM (inactive); in [4], 1.84 µM (inactive); in test [5], 17.9 µM (inactive); in test [6], 12.8 µM (inactive). Further, the GI50 in test [7] is 1.31 µM (inactive); in test [8] it was 10.2 µM (inactive); in test [9], 7.03 µM (inactive); in test [10], 9.42 µM; in test [11], 10.2 µM (inactive); in [12], 11.3 µM (inactive). Besides, the GI50 was 7.38 µM (inactive) in test [13]; 5.25 µM (inactive) in test [14]; 14.4 µM (inactive) in [15]; 7.82 µM (inactive) in test [16]; 20.3 µM (inactive) in test [17]; 10.8 µM (inactive) in test [18]. The GI50 in [19] was 2.06 µM (inactive); in test [20] it was 5.74 µM (inactive).

On to `CN(C)CC1CCC(CN(C)C)C1=O` (stereo not given), for which the GI50 was 3.31 µM (inactive) in [1]; 7.67 µM (inactive) in [2]; 3.81 µM (inactive) in test [3]; 20 µM (inactive) in [4]; 9.73 µM (inactive) in [5]; 0.541 µM (active) in test [6]. The GI50 was 8.26 µM (inactive) in test [7]; 18 µM (inactive) in [8]; 0.873 µM (active) in [9]; 1.43 µM in test [10]; 0.114 µM (active) in [11]; 19.5 µM (inactive) in test [12]. Also, the GI50 in test [13] is 18.7 µM (inactive); in test [14], 7.94 µM (inactive); in test [15] it was 4.7 µM (inactive); in test [16] it was 24.3 µM (inactive); in test [17], 8.65 µM (inactive); in test [18] it was 4.19 µM (inactive). Also, the GI50 is 4.53 µM (inactive) in test [19] and 0.458 µM (active) in test [20].

As to `CN(CCCN(C)Cc1ccc(Cl)c(Cl)c1)CCN1CCCC1`, the GI50 in test [1] was 29.5 µM (inactive); in test [2], 4.78 µM (inactive); in test [3] it was 60.3 µM (inactive); in test [4], 3.33 µM (inactive); in test [5], 28.7 µM (inactive); in [6], 4.28 µM (inactive). In addition, the GI50 in test [7] was 6.92 µM (inactive); in test [8] it was 3.5 µM (inactive); in test [9], 19.7 µM (inactive); in test [10] it was 29 µM; in [11], 16 µM (inactive); in test [12], 27.5 µM (inactive). The GI50 in test [13] is 19.1 µM (inactive); in [14], 27.7 µM (inactive); in test [15], 27.8 µM (inactive); in test [16] it was 16.8 µM (inactive); in test [17], 1.93 µM (inactive); in test [18], 15.1 µM (inactive). Besides, the GI50 in test [19] is 36.3 µM (inactive); in test [20] it was 18.4 µM (inactive).

Take `CC1C/C(=N\N(C)C)C(C#N)(C#N)C1(C#N)C#N` (stereo not given): the GI50 in test [1] is 19.2 µM (inactive); in test [2] it was 15.6 µM (inactive); in test [3], 13.2 µM (inactive); in [4], 16.7 µM (inactive); in [5], 21.6 µM (inactive); in test [6] it was 3.92 µM (inactive). Further, the GI50 was 18.7 µM (inactive) in test [7]; 17 µM (inactive) in [8]; 5.05 µM (inactive) in test [9]; 4.81 µM in [10]; 1.93 µM (inactive) in test [11]; 15.6 µM (inactive) in [12]. The GI50 in [13] is 24.8 µM (inactive); in [14], 20.6 µM (inactive); in test [15], 8.43 µM (inactive); in [16], 18.7 µM (inactive); in test [17] it was 16 µM (inactive); in test [18] it was 9.89 µM (inactive). Also, the GI50 is 22 µM (inactive) in [19] and 16 µM (inactive) in test [20].

Take `O=C(Oc1cccc2cccnc12)c1cc2cc(CCl)ccc2oc1=O`: the GI50 in test [1] was 34 µM (inactive); in test [2], 9.91 µM (inactive); in test [3], 3.68 µM (inactive); in [4], 10.8 µM (inactive); in test [5], 31.5 µM (inactive); in [6] it was 4.94 µM (inactive). Besides, the GI50 in test [7] was 21.9 µM (inactive); in test [8], 20.3 µM (inactive); in test [9], 4.56 µM (inactive); in [10], 2.77 µM; in [11] it was 2.18 µM (inactive); in test [12], 18.5 µM (inactive). Besides, the GI50 in [13] is 27.7 µM (inactive); in test [14], 24.4 µM (inactive); in [15] it was 19 µM (inactive); in test [16], 24.3 µM (inactive); in test [17], 30.1 µM (inactive); in test [18], 17.3 µM (inactive). The values for the GI50 in test [19] and in test [20] were 2.4 µM (inactive) and 3.14 µM (inactive), respectively.
